Results reported in ChEMBL document CHEMBL1201862, “PubChem BioAssay data set” (2004).
The source made the active and inactive calls.

How the values were obtained:
[1] = system: Escherichia coli; experiment: microbe, parasite or virus in culture
[2] = HIV-1 AD8 envelope cell-cell fusion blockers – cherry-pick, dose response (AID 652062); assay type: functional, cell-based;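 further: luciferase signal from cell-cell fusion driven by HIV-1 clade B AD8 Env; potency is for inhibitors of fusion seen as a drop in luminescence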
[3] = off-target signal loss in HeLa-CEM21 co-culture – HeLa F-luc CTL cells, cherry-picked, counter-screen for HIV-1 Env fusion inhibitor project, dose response (AID 652040); assay type: functional, cell-based;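 further: potency for signal decrease marking cytotoxic or nonspecific inhibition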
[4] = blockers of HIV-1 ZM109 envelope-driven cell-cell fusion – HeLa effector, CEM target cells, luciferase, cherry-pick, dose response (AID 652058); assay type: functional, cell-based;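 further: luciferase signal from HIV-1 Env mediated cell-cell fusion of effector and target cells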
[5] = molecular target: Mu-type opioid receptor (Homo sapiens, UniProt P35372); assay type: functional, cell-based;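 further: U2OS cells with beta-arrestin recruitment to OPRM1 by beta-gal complementation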
[6] = viability loss in CEM21 cells – cell-based, CellTiter-Glo luminescence, cherry-picked, cytotoxicity control for viral fusion inhibitor project, dose response (AID 652042); assay type: functional;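 further: potency for signal decrease meaning cytotoxicity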
[7] = molecular target: 5-hydroxytryptamine receptor 2A (Mus musculus, UniProt P35363); assay type: functional, cell-based;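 further: CHO-K1 cells with tagged receptor and beta-arrestin; agonist potency measured as compound-induced activation of the receptor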
[8] = blockers of HIV-1 envelope-mediated cell-cell fusion – cherry-pick, dose response (AID 652057); assay type: functional, cell-based
[9] = microbe, parasite or virus in culture; assay type: functional; conditions: Mycobacterium tuberculosis
[10] = system: Escherichia coli; experiment: microbe, parasite or virus in culture; remark: listed apart in the source
[11] = molecular target: Paired box protein Pax-8 (Homo sapiens, UniProt Q06710); experiment: PAX8 transcriptional activity inhibition in RMG-I – RMG-I cells, luciferase, cherry-pick, dose response (AID 687027); assay type: functional, cell-based;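 further: luciferase reporter driven by Pax8 target thyroperoxidase promoter measured by SteadyGlo luminescence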
[12] = Counterscreen for […] of the human trace amine associated receptor 1 (TAAR1): Fluorescence-based cell-based high throughput dose response assay to identify nonselective Ga16 agonists.; assay type: functional
[13] = general cell-killing toxicity readout – plate reader, dry powder samples, cytotoxicity control for PAX8 inhibitor project, dose response (AID 743021); assay type: functional, cell-based
[14] = Luminescence Cell-Based Dose Retest to Confirm Inhibitors of Cancer Stem Cells. [Related pubchem assays (depositor defined):AID2717, AID2721]; assay type: functional; conditions: Homo sapiens
[15] = Counterscreen for antagonists of the human trace amine associated receptor 1 (hTAAR1): Fluorescence-based cell-based high throughput dose response assay to identify nonselective Ga16 antagonists.; assay type: functional
[16] = Late stage assay provider results from the probe development effort to identify selective inhibitors of heat shock protein 90 (HSP90): Absorbance-based cell proliferation assay in SKBR3 cells.; assay type: functional; conditions: SK-BR-3
[17] = molecular target: Heat shock protein HSP 90-alpha (Homo sapiens, UniProt P07900); experiment: Luminescence-based dose response biochemical high throughput screening assay for inhibitors of the Heat Shock Protein 90 (HSP90). [Related pubchem assays: 1831 (Summary AID.), 1846 (Confirmation screen.), 1789 (Primary screen.)]
[18] = Late stage assay provider results from the probe development effort to identify selective inhibitors of heat shock protein 90 (HSP90): Absorbance-based cell proliferation assay in MCF7 cells.; assay type: functional
[19] = molecular target: Major prion protein (Homo sapiens, UniProt P04156); assay type: functional, cell-based
[20] = cells
[21] = molecular target: Endoplasmic reticulum aminopeptidase 1 (Homo sapiens, UniProt Q9NZ08); experiment: inhibition of human ERAP1 enzyme activity – biochemical, cherry-pick, set 2, plate reader, dose response (AID 743314)
[22] = OVCAR-3 cell viability loss – plate reader, dry powder samples, PAX8 inhibitor project, dose response (AID 743044); assay type: functional, cell-based
[23] = OVCAR8 cell viability loss – plate reader, dry powder samples, PAX8 project, dose response (AID 743197); assay type: functional, cell-based; conditions: OVCAR-8
[24] = IGROV1 cell killing – plate reader, dry powder samples, PAX8 inhibitor project, dose response (AID 743043); assay type: functional, cell-based; conditions: IGROV-1
[25] = molecular target: Beta-lactamase (Salmonella choleraesuis (strain SC-B67), UniProt Q5J463); experiment: Epi-absorbance-based counterscreen for selective VIM-2 inhibitors: dose response biochemical high throughput screening assay to identify inhibitors of TEM-1 serine-beta-lactamase.
[26] = molecular target: T1, Beta-lactamase (Pseudomonas aeruginosa, UniProt Q79MP6); experiment: […] counterscreen for selective VIM-2 inhibitors: dose response biochemical high throughput screening assay to identify inhibitors of IMP-1 metallo-beta-lactamase.
[27] = molecular target: T1, Beta-lactamase; experiment: inhibition of IMP-1 beta-lactamase activity – biochemical, epi-absorbance, selectivity assay for VIM-2 inhibitor project, dose response (AID 1920)
[28] = potency of ADAM10 substrate cleavage blockers – biochemical, QFRET, dose response (AID 743254);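 further: ADAM10 enzyme with the DM2 quenched FRET peptide as substrate; EDANS fluorescence gain as the protease cuts the substrate; inhibitor potency against ADAM10 proteolytic activity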
[29] = molecular target: Disintegrin and metalloproteinase domain-containing protein 17 (Homo sapiens, UniProt P78536); experiment: inhibition of ADAM17 substrate cleavage – biochemical, quenched FRET substrate, counter-screen for ADAM10 exosite inhibitor project, dose response (AID 743253)
[30] = molecular target: Fructose-bisphosphate aldolase (Mycobacterium tuberculosis, UniProt P9WQA3); experiment: Fluorescence-based biochemical high throughput dose response assay for inhibitors of the fructose-bisphosphate aldolase (FBA) of M. tuberculosis.; assay type: functional
[31] = Late stage assay provider results from the probe development effort to identify inhibitors of the Plasmodium falciparum M17 Leucine Aminopeptidase (M17LAP): radiolabel-based cell-based dose response assay to identify compounds that inhibit P. falciparum growth in RBCs Set 2.; assay type: functional
[32] = system: Vero; experiment: viability loss in Vero cells – cell-based, plate reader, cherry-pick samples, cytotoxicity control, dose response (AID 687020); assay type: functional; conditions: Chlorocebus sabaeus
[33] = A cytotoxicity screen of small molecule inhibitors of the PhoP region in Salmonella typhi identified in the primary screen. [Related pubchem assays: 1850, 1864, 1985 ]; assay type: functional
[34] = molecular target: Dual specificity tyrosine-phosphorylation-regulated kinase 1A (Rattus norvegicus, UniProt Q63470); assay type: biochemical, Homo sapiens
[35] = viability loss in HepG2 hepatoma cells – cell-based, ATP luminescence, cherry-pick, activator set 2, cytotoxicity control, dose response (AID 1053143); assay type: functional
[36] = cells; assay type: functional, cell-based; conditions: HEK-CNG
[37] = molecular target: Galanin receptor type 3 (Homo sapiens, UniProt O60755); experiment: Fluorescence-based cell-based primary high throughput dose response assay to identify antagonists of the Galanin Receptor 3 (GalR3).; assay type: functional
[38] = system: SN12K1; experiment: cells; assay type: functional; conditions: Homo sapiens
[39] = HEK-293T viability loss after treatment – luminescence, T-cell screen hits, cytotoxicity control for TCR NF-kB inhibitor project, dose response (AID 489026); assay type: functional, cell-based;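 further: cells exposed to compound about 14 hours before the viability readout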
[40] = system: P388; experiment: cells; assay type: functional; conditions: Mus musculus
[41] = alpha-synuclein stem-loop translation blockers – luminescence, H4 neuroglioblastoma cells, dose confirmation, confirmation (AID 2454); assay type: functional, cell-based;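 further: H4 neuroglioblastoma cells carrying an alpha-synuclein 5'UTR luciferase reporter; potency for inhibition of the luciferase signal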
[42] = luciferase reporter signal suppression in cells – H4 neuroglioma cells, luminescence, dose response (AID 1990); assay type: functional, cell-based
[43] = alpha-synuclein stem-loop luciferase translation blockers – H4 neuroglioma cells, luminescence, confirmation (AID 1988); assay type: functional, cell-based
[44] = cells; assay type: functional, cell-based
[45] = system: P388/ADR; experiment: cells; assay type: functional; conditions: Mus musculus
[46] = rescue of ΔF508 CFTR function, airway epithelium – human bronchial epithelial cells, plate reader, cherry-pick, two tests, dose response (AID 743267); assay type: functional, cell-based
[47] = luciferase reporter signal reduction – luminescence, H4-C neuroglioblastoma cells, dose response (AID 2458); assay type: functional, cell-based;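 further: H4 neuroglioblastoma cells stably carrying a luciferase reporter gene fusion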
[48] = CMV-driven luciferase expression suppression in HEK293 – cell-based, luminescence, dry powder, counter-screen for Pax8 inhibitor project, dose response (AID 743020); assay type: functional
[49] = A2780 cell killing – plate reader, dry powder samples, cytotoxicity control, dose response (AID 743046); assay type: functional, cell-based

CN(C)c1ccc(O)c2c1CC1CC3[C@@H](N(C)C)C(=O)C(C(N)=O)C(=O)[C@]3(O)C(=O)C1C2=O (stereo partly drawn)
AC50 [1]: 1.35 µM (active)
AC50 [2]: < 0.26 µM (active)
AC50 [3]: < 0.26 µM (active)
AC50 [4]: < 0.26 µM (active)
EC50 [5]: 92.5 µM (inactive)
AC50 [6]: 61.2 µM (active)
EC50 [7]: 0.659 µM (active)
AC50 [8]: < 0.26 µM (active)
CC50 [9]: 29 µM (active)
AC50 [10]: 11.8 µM (active)

Cc1cc(Br)c(OCc2ccc(C(=O)N/N=C/c3ccc[nH]3)cc2)c(Br)c1
AC50 [11]: 0.693 µM (active)
EC50 [12]: > 29.9 µM (inactive)
AC50 [13]: 59.4 µM (active)
AC50 [14]: 0.228 µM (active)
IC50 [15]: > 29.9 µM (inactive)

COC(=O)c1ccc2nc(NC(=O)C3CC3)sc2c1
IC50 [16]: > 100 µM (inactive)
IC50 [17]: 3.82 µM (active)
IC50 [18]: 49.2 µM (inactive)

O=C(O)c1cc(-c2cccnc2)nc2ccc(Br)cc12
IC50 [19]: 13.8 µM (inactive)
IC50 [20]: > 138 µM (inactive)

O=C(NCC1CC1)[C@@H]1[C@@H](CO)[C@@H]2Cn3c(ccc(/C=C/c4ccccc4)c3=O)[C@H]1N2C(=O)C1CC1
AC50 [21]: 14.7 µM (active)

C[C@@H]1CN([C@@H](C)CO)C(=O)c2cc(NC(=O)Nc3ccc(C(F)(F)F)cc3)ccc2O[C@@H](C)CCCCO[C@H]1CN(C)Cc1ccncc1
AC50 [22]: 29.5 µM (active)
AC50 [23]: 53.8 µM (active)
AC50 [11]: 8.41 µM (active)
AC50 [24]: 53.7 µM (active)

Cc1c(C)c2c(OCC(=O)N[C@@H](C)C(=O)O)cc3c(c2oc1=O)CCC(C)(C)O3
IC50 [25]: > 59.6 µM (inactive)
IC50 [26]: > 59.6 µM (inactive)
IC50 [27]: > 59.6 µM (inactive)

O=C(NCCc1nc2ccccc2[nH]1)/C(=C/c1ccc2c(c1)OCO2)NC(=O)c1ccc(Cl)cc1Cl
IC50 [28]: > 69.5 µM (inactive)
IC50 [29]: > 69.5 µM (inactive)

C=CCn1c(-c2ccc(N)cc2)nc2ccccc21
IC50 [30]: > 0.37 µM (active)

O=C(Cc1ccc(OCc2ccccc2)cc1)NO
IC50 [31]: 4.7 µM (active)

O=C(Nc1ccc(Cc2ccncc2)cc1)c1cccs1
AC50 [32]: 26.3 µM (active)
EC50 [33]: > 50 µM (active)

C=CS(=O)(=O)c1c2cc(OC)ccc2nc2ccc(OC)cc12
AC50 [34]: 0.682 µM (active)
AC50 [35]: 25.4 µM (active)

O=c1c(Cl)c(NCC2CCCO2)cnn1C12CC3CC(CC(C3)C1)C2 (stereo not drawn)
EC50 [36]: > 29.9 µM (inactive)
IC50 [37]: > 29.9 µM (inactive)

CC(=O)O[C@H]1C(=O)[C@@]2(C)[C@H]([C@H](OC(=O)c3ccccc3)[C@]3(O)C[C@H](OC(=O)[C@H](O)[C@@H](NC(=O)c4ccccc4)c4ccccc4)C(C)=C1C3(C)C)[C@]1(OC(C)=O)CO[C@@H]1C[C@@H]2O [PACLITAXEL]
GI50 [38]: 0.00327 µM (active)
IC50 [39]: > 80 µM (inactive)
GI50 [40]: 0.00569 µM (active)
EC50 [41]: 0.069 µM (active)
EC50 [42]: 10.6 µM (active)
EC50 [43]: < 0.1 µM (active)
EC50 [44]: 0.086 µM (active)
GI50 [45]: 0.605 µM (active)
AC50 [46]: 3.59 µM (active)
EC50 [47]: 0.039 µM (active)

C[C@@H]1CN([C@@H](C)CO)S(=O)(=O)c2ccc(C#CC3CCCC3)cc2O[C@H]1CN(C)Cc1cccnc1
AC50 [22]: 25.7 µM (active)
AC50 [11]: 8.33 µM (active)
AC50 [48]: 47.5 µM (active)
AC50 [49]: 15 µM (active)
AC50 [13]: 57.1 µM (active)
